These results are taken from patent US20030203969A1, “Pharmaceutically active aromatic guanylhydrazones” (priority 2000, published 2003).

Data set [1] deals with T-cell-tropic HIV-1NL4/3 strain. Description: Inhibition of T-cell-tropic HIV-1 NL4/3 replication in de novo infected Jurkat cells (p24 antigen). The class given is cell-based. The note with it: d10. Here is the method: HIV replication was measured either by p24 HIV Antigen Capture Assay Kit (ELISA; HIVAG-1 Monoclonal kit BIA011; Abbott) following the manufacturer's recommendation, or by using the Quantiplex HIV-1 RNA 3.0 Assay (bDNA) system (Chiron Diagnostics). The latter assay is a signal amplification nucleic acid probe assay (employing a sandwich nucleic acid hybridization procedure) for direct quantitation of HIV RNA in human plasma. There, in brief, HIV-1 is first concentrated from plasma by centrifugation. After release of genomic HIV-1 RNA from the virions, the RNA is captured to a microwell by a set of specific, synthetic oligonucleotide capture probes. A set of target probes hybridize to both the viral RNA and the pre-amplifier probes. The capture probes, comprised of 17 individual capture extenders, and the target probes, comprised of 81 individual target extenders, bind to different regions of the pol gene of the viral RNA. The amplifier probe hybridizes to the pre-amplifier forming a branched DNA (bDNA) complex. Then, multiple copies of an alkaline phosphatase labeled probe are hybridized to this immobilized bDNA complex. Detection is achieved by incubating the entire complex with a chemoluminescent substrate. Light emission is directly proportional to the amount of HIV-1 RNA present in each sample, and results are recorded as relative light units by an appropriate analyzer.
Jurkat cells (species: human T-cell leukemia; special characteristics: cells are permissive for growth of T-cell tropic HIV strains; source:ATCC Cat.No. TIB 152) or PM1 cells (species: clonal derivative of human HUT 78 cells; special characteristics: cells are permissive for growth of macrophage-tropic and T-cell tropic HIV strains; source: Dr. Marvin Reitz, courtesy of the NIH AIDS Research and Reference Reagent Program Cat.No. 3038) were stimulated with Phytohemagglutinin (PHA-P, Product No. L9132 from Sigma) in a concentration of 2 μg/ml (1.5×10^6 cells/ml) and Hexadimethrine Bromide (Polybrene, Product No. H9268 from Sigma) in a concentration of 2 μg/ml (1.5×10^6 cells/ml) in RPMI 1640 medium containing 10% fetal calf serum (FCS, Pansystems GmbH) and antibiotics for 3 days.
For HIV-1 infection, 5×10^7 cells were resuspended in 500 μl culture medium without test drugs and incubated in a 50 ml blue-cap-tube at 37° C. for 5 hrs with HIV-1 high titer viral stocks. Jurkat cells were infected with the T-cell tropic strain HIV-1 NL4-3, PM1 cells with the macrophage tropic strain HIV-1 Ba-L (both from the NIH AIDS Research and Reference Reagent Program). After infection, cells were washed twice with PBS without Ca^2+ and Mg^2+ to avoid false positive p24 antigen determination. Cells were resuspended, and identical aliquots (1×10^6/ml) of infected cells were further cultured in 10 ml medium with test drugs at various concentrations, or in medium with DMSO as control for calculation of the inhibition of virus replication (in %].
Culture medium was changed and cells were split at days 3 and 7 of the experiments. Viability of the cells (Trypan-blue staining), cell counts and p24 antigen levels were determined at days 3, 7 and 10 of the experiments. No significant differences in cell viability were observed (˜85-90% living cells).
At day 10 of infection, the HIV strains replicated vigorously in untreated cultures. Numbers describe percent inhibition of HIV replication as compared to control experiments.

A further data set deals with P3HR-1 cells. As to the kind of experiment: Compound toxicity in P3HR-1 cells (Cell Titer Aqueous One). It counts as cell-based, human. The settings on record: P3HR1 cells; read-out: TC50 (the source's name). The method, then: Human P3HR-1 cells are latently infected with EBV. Culturing these cells in the presence of phorbol ester induces a lytic infection cycle, resulting in stimulation of viral replication within the cells. Compound efficacy in this assay is determined using TaqMan PCR technology, and compound toxicity is measured by addition of Promega's Cell Titer Aqueous One Solution (metabolic dye).
6. Duplicate plates are set up plating media in place of TPA for evaluation of compound toxicity.
6. Twenty micorliters of Cell Titer Aqueous One Solution (Promega) is added to each well of the toxicity plates. Plates are incubated at 37° C. in a humidified CO2 incubator for 4 hours or until sufficient color development has occurred. Plates are read on a VMax microtiter plate reader at a wavelength of 490/650 nm. Toxicity of the test compound is determined by comparing the optical density of test wells with that of control wells.

Another data set deals with VZV strain ELLEN. As to the kind of experiment: VZV plaque reduction assay in MRC-5 cells. It counts as cell-based, Varicella-zoster virus. The method, then: MRC-5 (human embryonic lung fibroblast) cells (ATCC Cat. No. CCL-171) are seeded in 24 well plates using Eagle's Minimum Essential Medium (EMEM) supplemented with 10% heat-inactivated fetal bovine serum (FBS), L-glutamine, sodium pyruvate, non-essential amino acids, penicillin, and streptomycin. The plates are then incubated overnight at 37° C. and 5% CO2. The following day, media is aspirated and approximately 50-100 pfu (plaque forming units) of VZV strain ELLEN is added to the wells of each plate in a volume of 200 μl of assay media (EMEM supplemented with 5% heat-inactivated FBS, L-glutamine, sodium pyruvate, non-essential amino acids, penicillin, and streptomycin). The remaining wells of each plate serve as cellular control wells and receive 200 μl of assay media without virus. The virus is allowed to adsorb onto the cells for 1 hr at 37° C. and 5% CO2. Two dilutions of each test drug are prepared by diluting them in assay media containing 0.5% Methylcellulose. After the incubation period, 1 ml of each drug dilution is added to triplicate wells of a plate. Assay media (without drug) containing 0.5% Methylcellulose is added to the three cell control wells and to three virus control wells on each plate. The plates are incubated for 9-12 days to allow for plaque formation. […]

Take `CC(=NNC(=N)N)c1cc(NC(=O)CCCCCCCCC(=O)Nc2cc(C(C)=NNC(=N)N)cc(C(C)=NNC(=N)N)c2)cc(C(C)=NNC(=N)N)c1` [Compound 4, N,N′-bis (3,5-diacetylphenyl) decane diamide tetrakis (amidinohydrazone)]: the “percent inhibition of HIV replication as compared to control” value in data set [1] (HIV-1 NL4/3, 0.5 μM) stood at 31%; in data set [1] (HIV-1 NL4/3, 1.0 μM), 85%. In the data set with P3HR-1 cells, the CC50 was determined as 21.8 µM. In addition, the half-maximal inhibitory concentration (IC50) in the data set with VZV strain ELLEN (MRC-5 cells newly infected with VZV) came to 4.69 µM. The Comments entry with VZV strain ELLEN (VZV, MRC-5 cells) was “Significant activity”.
